Consider three compounds from patent US20230112800A1 (priority 2021, published 2023).

A word on the IC50: it is the midpoint of a concentration-inhibition curve.

Where two headings read alike, the source gives them in different places.

For data set [1], the system named is COVID-19. The settings on record: in-vitro isolate COVID-19, Vero E6 cells; cited from earlier work.
Data set [2] deals with SARS-CoV. As to conditions: Vero cells infected by SARS-CoV (2002 pandemic); cited from earlier work.
The conditions of data set [3]: CD-1 mice, 500 mg/kg suspended in 0.5% Methocel A4M.
For data set [4] the following is noted: rats, niclosamide dose of 10 mg/kg by oral gavage, n = 5.

`CCN(CC)CCCC(C)Nc1ccnc2cc(Cl)ccc12` (stereo not shown) [chloroquine]: the IC50 in data set [1] is 1130 nM; in data set [2], 4400 nM.
Turning to `O=C(Nc1ccc([N+](=O)[O-])cc1Cl)c1cc(Cl)ccc1O` [Crystalline Nic], in data set [3], the AUC0-last came to 1454.6 ng·h/mL, the Cmax is on record as 661.7 ng/mL and the Tmax turned out to be 30 min.
In the case of `O=C(Nc1ccc([N+](=O)[O-])cc1Cl)c1cc(Cl)ccc1O`, in data set [4], the AUCInf is 188 (84) h*ng/mL, the AUC_%Extrap_obs is 8.4 (7.0) %, the AUClast is on record as 168 (64) h*ng/mL and the AUClast/D was 16.8 (6.4) h*mg/mL. Moreover, in data set [4], the Cmax was 48.3 (20.6) ng/mL, the MRTInf_obs is recorded as 3.56 (0.70) h, the T1/2 was 1.00 (0.30) h and the Tmax was 3.60 (0.89) h.
